The source of these data is US20120184517A1, “TREATMENT OF DISEASES WITH ALTERED SMOOTH MUSCLE CONTRACTILITY” (priority 2009, published 2012).

Data set [1] relates to rat stroke models. The conditions noted are these: in vivo; cited from earlier work.
The target of data set [2] is maxi-K potassium channels (Homo sapiens, UniProt Q12791). The conditions noted are these: 50 nM intracellular Ca2+; cited from earlier work.
The test system of data set [3] is WT tracheal rings. Nature of the data set: Isoproterenol-induced relaxation of WT tracheal rings on a myograph. The class given is cell-based, murine. To be noted: pre-incubation with β2-AR antagonist 100 nM. The method, then:
(n=4 each). Asterisk (*) indicates P<0.05 versus vehicle (DMSO). […] Cumulative dose-response curves of WT tracheal rings to isoproterenol in the absence and presence of 100 nM iberiotoxin (IbTX), a specific BK channel inhibitor. Values in graphs are means±standard deviation.
In this experiment, murine tracheal smooth muscle cells were acutely isolated and whole cell patch clamped as previously described (Zakharov, S. et al., (2005) J Biol Chem 280, 30882-30887).
To dissect which (or both) β-AR pathways are responsible for the effects, tracheal rings were pre-incubated with either β1-AR antagonist (CGP 20712A; 100 nM) or a β2-AR antagonist (ICI 118551; 100 nM) or vehicle (DMSO). […] To confirm that the isoproterenol-induced relaxation was dependent upon BK channel-induced hyperpolarization, IbTX, a specific inhibitor of the BK channel, was used.

Data set [4] deals with T1, BKCa channel (Homo sapiens, UniProt Q12791). To be noted: cytoplasmic side; cited from earlier work.
T1 sequence (Q12791 whole entry): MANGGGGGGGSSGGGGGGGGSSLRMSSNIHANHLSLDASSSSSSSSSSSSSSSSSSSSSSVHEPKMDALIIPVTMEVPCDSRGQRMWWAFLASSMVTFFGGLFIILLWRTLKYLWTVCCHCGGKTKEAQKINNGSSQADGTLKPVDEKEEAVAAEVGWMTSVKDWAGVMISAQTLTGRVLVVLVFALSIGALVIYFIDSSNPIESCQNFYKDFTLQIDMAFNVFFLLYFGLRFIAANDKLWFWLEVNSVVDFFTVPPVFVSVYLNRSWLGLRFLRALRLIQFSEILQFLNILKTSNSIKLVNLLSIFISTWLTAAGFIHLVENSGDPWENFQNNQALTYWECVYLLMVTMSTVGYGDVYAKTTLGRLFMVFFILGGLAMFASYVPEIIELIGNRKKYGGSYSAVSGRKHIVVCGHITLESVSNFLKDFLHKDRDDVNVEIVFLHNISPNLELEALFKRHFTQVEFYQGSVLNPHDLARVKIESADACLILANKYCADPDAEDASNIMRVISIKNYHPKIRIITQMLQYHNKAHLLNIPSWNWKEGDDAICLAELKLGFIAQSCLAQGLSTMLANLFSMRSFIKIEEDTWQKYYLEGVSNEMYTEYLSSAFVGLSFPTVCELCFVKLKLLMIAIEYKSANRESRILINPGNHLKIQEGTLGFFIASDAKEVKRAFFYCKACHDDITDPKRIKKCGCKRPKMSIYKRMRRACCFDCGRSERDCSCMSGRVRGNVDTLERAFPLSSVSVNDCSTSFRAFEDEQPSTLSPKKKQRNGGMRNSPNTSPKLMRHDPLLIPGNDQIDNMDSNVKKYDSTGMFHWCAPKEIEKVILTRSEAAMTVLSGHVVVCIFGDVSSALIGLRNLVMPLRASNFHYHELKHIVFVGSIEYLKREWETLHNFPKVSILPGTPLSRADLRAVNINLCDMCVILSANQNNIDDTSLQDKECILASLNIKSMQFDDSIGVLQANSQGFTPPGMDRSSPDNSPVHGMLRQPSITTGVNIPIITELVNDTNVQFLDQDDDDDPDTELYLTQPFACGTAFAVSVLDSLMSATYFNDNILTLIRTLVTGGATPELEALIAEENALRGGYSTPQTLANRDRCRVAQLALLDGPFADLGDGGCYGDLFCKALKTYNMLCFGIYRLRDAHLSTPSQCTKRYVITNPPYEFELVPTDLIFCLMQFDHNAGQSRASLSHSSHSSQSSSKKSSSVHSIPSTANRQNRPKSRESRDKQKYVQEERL
The conditions of data set [5]: not told; cited from earlier work.
For data set [6], the target named is T2, BKCa channel in porcine coronary artery cells (Sus scrofa, UniProt O18866).
T2 construct: host or cells: porcine coronary artery cells
T2 sequence (O18866 whole entry): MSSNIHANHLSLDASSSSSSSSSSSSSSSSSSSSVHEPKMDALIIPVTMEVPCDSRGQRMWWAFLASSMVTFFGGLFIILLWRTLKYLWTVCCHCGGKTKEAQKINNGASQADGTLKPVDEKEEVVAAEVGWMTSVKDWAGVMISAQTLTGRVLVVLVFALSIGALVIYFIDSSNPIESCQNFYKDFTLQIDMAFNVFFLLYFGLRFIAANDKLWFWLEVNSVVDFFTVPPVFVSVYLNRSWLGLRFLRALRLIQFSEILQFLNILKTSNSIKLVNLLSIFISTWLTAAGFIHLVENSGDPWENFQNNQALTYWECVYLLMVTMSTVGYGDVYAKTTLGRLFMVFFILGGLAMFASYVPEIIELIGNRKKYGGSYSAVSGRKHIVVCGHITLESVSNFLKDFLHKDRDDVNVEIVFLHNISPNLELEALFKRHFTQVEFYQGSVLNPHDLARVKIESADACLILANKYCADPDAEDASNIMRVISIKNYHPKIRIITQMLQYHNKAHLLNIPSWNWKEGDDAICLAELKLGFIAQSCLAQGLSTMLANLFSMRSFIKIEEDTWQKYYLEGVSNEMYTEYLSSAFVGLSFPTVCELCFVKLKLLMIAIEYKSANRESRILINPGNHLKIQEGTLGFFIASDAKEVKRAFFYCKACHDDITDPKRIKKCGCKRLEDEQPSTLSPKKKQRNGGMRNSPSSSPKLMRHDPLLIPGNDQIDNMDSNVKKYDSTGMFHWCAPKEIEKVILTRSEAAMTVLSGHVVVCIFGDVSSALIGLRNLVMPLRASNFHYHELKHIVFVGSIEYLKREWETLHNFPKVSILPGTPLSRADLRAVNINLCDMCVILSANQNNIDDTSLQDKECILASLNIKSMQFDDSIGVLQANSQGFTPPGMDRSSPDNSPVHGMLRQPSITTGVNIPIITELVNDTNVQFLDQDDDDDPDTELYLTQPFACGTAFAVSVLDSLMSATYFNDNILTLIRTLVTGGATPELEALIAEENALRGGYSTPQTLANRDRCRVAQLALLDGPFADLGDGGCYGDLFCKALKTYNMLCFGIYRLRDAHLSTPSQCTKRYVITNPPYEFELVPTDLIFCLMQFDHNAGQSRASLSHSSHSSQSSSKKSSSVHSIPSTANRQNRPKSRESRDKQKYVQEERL
The conditions noted are these: cited from earlier work.

Data set [7] relates to porcine coronary myocytes. To be noted: 30 μM; cited from earlier work.
For data set [8], the target named is T3, BKCa channel (mSlo) (Mus musculus, UniProt Q08460).
T3 construct: expressed in transfected cells
T3 sequence (Q08460 whole entry): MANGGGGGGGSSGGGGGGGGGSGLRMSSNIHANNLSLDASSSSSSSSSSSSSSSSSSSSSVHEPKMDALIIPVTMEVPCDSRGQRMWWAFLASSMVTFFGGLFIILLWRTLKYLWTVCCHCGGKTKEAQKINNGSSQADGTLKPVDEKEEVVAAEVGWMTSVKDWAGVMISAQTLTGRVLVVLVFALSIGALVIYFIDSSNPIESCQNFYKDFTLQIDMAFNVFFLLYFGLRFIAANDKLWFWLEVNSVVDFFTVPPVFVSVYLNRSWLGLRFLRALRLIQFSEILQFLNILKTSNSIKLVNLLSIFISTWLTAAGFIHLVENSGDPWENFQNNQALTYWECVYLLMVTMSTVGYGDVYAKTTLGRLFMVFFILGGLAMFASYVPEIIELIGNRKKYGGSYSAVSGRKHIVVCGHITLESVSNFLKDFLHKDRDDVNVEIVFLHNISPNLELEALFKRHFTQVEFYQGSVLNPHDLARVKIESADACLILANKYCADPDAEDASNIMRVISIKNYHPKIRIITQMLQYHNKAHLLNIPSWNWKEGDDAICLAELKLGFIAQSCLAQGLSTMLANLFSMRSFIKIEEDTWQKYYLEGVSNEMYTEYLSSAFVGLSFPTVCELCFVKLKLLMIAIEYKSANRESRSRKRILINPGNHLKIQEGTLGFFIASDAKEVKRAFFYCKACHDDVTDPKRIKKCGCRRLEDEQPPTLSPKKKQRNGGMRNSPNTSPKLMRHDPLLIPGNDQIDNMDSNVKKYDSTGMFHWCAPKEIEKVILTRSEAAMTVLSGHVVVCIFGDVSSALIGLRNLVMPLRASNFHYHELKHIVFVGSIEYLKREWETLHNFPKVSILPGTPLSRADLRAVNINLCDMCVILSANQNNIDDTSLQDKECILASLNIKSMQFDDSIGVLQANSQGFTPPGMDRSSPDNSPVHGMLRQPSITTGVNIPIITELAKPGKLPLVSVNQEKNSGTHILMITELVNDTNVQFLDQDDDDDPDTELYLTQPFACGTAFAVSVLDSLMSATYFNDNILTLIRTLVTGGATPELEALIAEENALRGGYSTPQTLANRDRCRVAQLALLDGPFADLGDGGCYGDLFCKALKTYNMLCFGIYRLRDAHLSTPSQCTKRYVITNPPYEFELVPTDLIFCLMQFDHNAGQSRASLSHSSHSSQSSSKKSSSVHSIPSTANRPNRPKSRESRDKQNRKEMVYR
The experiment in a line: Whole cell patch clamp of HEK293 cells stably transfected with mSlo. Type of data set: cell-based, murine. On the procedure: FIGS. 4A and 4B show representative current traces from whole cell patches with 5 mM EGTA in patch pipette. […] Voltage steps are shown at the right of each tracing; note the different maximum voltage steps +200 mV (upper) vs. +120 mV (lower). […] FIG. 4C G-V curves were constructed for indicated conditions utilizing tail analysis (Xia, et al., Multiple regulatory sites in large-conductance calcium-activated potassium channels. Nature, 2002. 418(6900):880-4). Solid lines were fitted with Boltzmann function. […] FIGS. 4D and 4E show experiments studying stable mslo HEK293 cells in whole cell configuration with a pipette solution containing 5 mM EGTA (˜0 free Ca^2+).
Current in the diary plot in FIG. 5B represents maximal current in ramp protocol at +70 mV. Holding potential of ramp was −20 mV, with ramp from −30 mV to +180 mV over 500 ms. The G-V curve in FIG. 5C was generated from the tail analysis as described in FIG. 4.
(§1) Current was monitored with a ramp protocol; holding potential −60 mV, with ramp from −80 mV to +150 mV over 500 ms. […] Analysis was performed using tail analysis with normalization as previously described (Xia, et al., Multiple regulatory sites in large-conductance calcium-activated potassium channels. Nature, 2002. 418(6900):880-4). […] Identification of the BKCa channel was determined by conductance and inhibition by iberiotoxin and TEA. […] Murine femoral arterial rings were isolated and placed in a wire myograph. […] The figures shown are representative of 4 similar experiments. Error bars are standard error of the mean (SEM). Asterisk (*) indicates p<0.001.

Data set [9] concerns 2K-1C hypertensive rats. To be noted: hypertensive rat model compared to controls; cited from earlier work.
For data set [10], the system named is murine femoral arterial rings. Type of data set: cell-based. The method, then:
as §1

For data set [11], the target named is T4, BK currents in tracheal ASM cells (Mus musculus, UniProt Q08460).
T4 construct: The effect of ISO on BK currents in acutely isolated tracheal ASM was also determined; endogenous in cells; host or cells: acutely isolated tracheal airway smooth muscle cells
T4 sequence (Q08460 whole entry): as above
T4 sequence (Q8CAE3 whole entry partner): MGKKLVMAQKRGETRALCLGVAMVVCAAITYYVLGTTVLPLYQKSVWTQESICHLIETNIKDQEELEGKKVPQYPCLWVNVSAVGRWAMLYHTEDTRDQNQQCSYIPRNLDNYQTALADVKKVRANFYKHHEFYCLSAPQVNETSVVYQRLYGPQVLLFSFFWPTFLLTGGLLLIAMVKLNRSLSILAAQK
The experiment in a line: Perforated whole cell voltage clamp of acutely isolated tracheal ASM, outward K+ current. Type of data set: cell-based. The conditions noted are these: 0.5 μM ISO. On the procedure:
FIG. 23A is a diary plot of current recorded during repetitive stimulation by depolarizing ramps every 5 seconds to +200 mV from a holding potential of −20 mV. ISO and ISO+IbTX exposure are indicated by bars at bottom of plot. Dashed line indicates average control current.
The effect of ISO on BK currents in acutely isolated tracheal ASM was also determined. ASM cells were studied using perforated whole cell voltage clamp. After obtaining access, outward K^+ current was monitored using a 0.5 second ramp, from a holding potential of −20 mV to +200 mV. […] Under the conditions used, the majority of the outward K^+ current is conducted by the BK channel, as shown by IbTX-blockade (FIGS. 23A and 23B).

The test system of data set [12] is tracheal rings. Nature of the data set: Isoproterenol-induced relaxation of tracheal rings from PBS- and OVA-sensitized animals. Type of data set: cell-based, murine. To be noted: no rottlerin. The method, then:
The isoproterenol-induced relaxation of tracheal rings from OVA-sensitized asthmatic animals was also tested. After induction of asthma, tracheal rings were removed and mounted on the myograph. […] At the conclusion of the experiment, each tracheal ring was exposed to methacholine to ensure viability of the ring and equivalent constriction.
After induction of asthma, tracheal rings were removed and mounted on the myograph. […] The ISO-relaxation curve was shifted downward and to the right, with the maximal relaxation response reduced to only ˜25% from more than 60%.

Data set [13] has as its target T1, BKCa channel. The conditions noted are these: cited from earlier work.
Data set [14] relates to dilation to forskolin. The conditions noted are these: cited from earlier work.

Chain of maxi-K potassium channels (Q12791 whole entry): as the sequence (Q12791 whole entry) above

Consider `COc1ccc(Cl)cc1[C@]1(F)C(=O)Nc2cc(C(F)(F)F)ccc21` [BMS-204352], for which, in [1], the brain infarct size result is given as “reduction in brain infarct size”. Besides, the effect on current entry in data set [2] is on record as “almost no effect”.

In the case of `Cc1ccc(OCC(O)C(C)NC(C)C)c2c1CCC2` (centres unmarked) [ICI 118551, reference compound], the isoproterenol dose-response curve entry in data set [3] is listed as “rightward shift in the dose-response curve”.

Take `C=C[C@]1(C)C=C2CC[C@@]3(O)C(C)(C)CC[C@H](O)[C@]3(C)C2CC1` (some centres unmarked) [Maxikdiol]: in data set [4], the “concentration of significant effect” value is 3 to 10 µM and the “threshold of channel activation” value was 1 µM. Moreover, in data set [5], the membrane permeability entry is listed as “limited”.

`O=C(Nc1cccc(C(F)(F)F)c1)Nc1cc(Cl)ccc1O` [NS1608]: the “effect at higher concentrations” value in data set [6] (50 μM) is recorded as “inhibitory effect”. Moreover, in data set [6], the “concentration of maximum activation” value is 5 to 10 µM and the minimum effective concentration is 0.5 µM.

As for `O=c1[nH]c2cc(C(F)(F)F)ccc2n1-c1cc(C(F)(F)F)ccc1O` [NS-1619], the “intracellular Ca2+ concentration” value in [7] is “increase intracellular Ca^2+ concentration”. Further, the “peak K+ current” value in data set [8] (NS-1619 10 μM extracellular) is on record as “activated peak K^+ current”. For the same compound, the “efficacy in mediating vascular relaxation” value in [9] is recorded as “diminished”.

Consider `CC[N+](CC)(CC)CC` [TEA, tetraethylammonium, reference compound], for which the “effect on the rottlerin mediated effect” value in data set [10] is recorded as “inhibited”. Further, the “effect on rottlerin induced BKCa activation” value in [8] is “reversibly inhibited”.

On to `CC(C)NCC(O)c1ccc(O)c(O)c1` (centres unmarked) [isoproterenol, reference compound], for which the “increase of outward K+ current” value in [11] is given as “more than 50%”. Also, the “maximal relaxation response to isoproterenol” value is listed as approximately 25% in data set [12] (OVA-sensitized rings) and “more than 60%” in data set [12] (control rings).

As for `CC1(C)C[C@@H](O)[C@]2(C)CC[C@]3(C)C(=CC[C@@H]4[C@@]5(C)CC[C@H](O[C@@H]6O[C@H](C(=O)O)[C@@H](O)[C@H](O)[C@H]6O[C@@H]6O[C@H](CO)[C@H](O)[C@H](O)[C@H]6O)[C@](C)(CO)[C@@H]5CC[C@]43C)[C@@H]2C1` [soyasaponin III], the BKCa channel activation result in data set [13] is on record as “activate BKCa channels”.

Take `C[C@@H]1O[C@@H](O[C@H]2[C@H](O[C@H]3[C@H](O[C@H]4CC[C@@]5(C)[C@@H](CC[C@]6(C)[C@@H]5CC=C5[C@@H]7CC(C)(C)C[C@@H](O)[C@]7(C)CC[C@]56C)[C@@]4(C)CO)O[C@H](C(=O)O)[C@@H](O)[C@@H]3O)O[C@H](CO)[C@H](O)[C@@H]2O)[C@H](O)[C@H](O)[C@H]1O` [soyasaponin I]: the BKCa channel activation result in data set [13] was “activate BKCa channels”.

As for Ryanodine, the “reduction of dilation to forskolin” value in data set [14] is reported as 80%.

In the case of dehydrosoyasaponin-I [DHS-I], in data set [13], the BKCa channel activation result is “activate BKCa channels”; the “channel activity with α and β subunits co-expressed” value is given as “increases channel activity”. Moreover, the membrane permeability entry in [5] was “poor”.
